Test system: HEK293T cells carrying the ATF4 luciferase reporter
Test: ATF4-Luc assay (in vitro model of vanishing white matter disease)
Format: cell-based
Conditions: Homo sapiens, HEK-293T; HEK293T cells with ATF4 luciferase reporter, 1 μg/mL tunicamycin, 7 hours, One Glo luminescence
Procedure: In order to test exemplary compounds of the invention in a cellular context, a stable VWMD cell line was first constructed. The ATF4 reporter was prepared by fusing the human full-length ATF4 5′-UTR (NCBI Accession No. BC022088.2) in front of the firefly luciferase (FLuc) coding sequence lacking the initiator methionine as described in Sidrauski et al (eLife 2013). The construct was used to produce recombinant retroviruses using standard methods and the resulting viral supernatant was used to transduce HEK293T cells, which were then subsequently selected with puromycin to generate a stable cell line.
HEK293T cells carrying the ATF4 luciferase reporter were plated on polylysine coated 384-well plates (Greiner Bio-one) at 30,000 cells per well. Cells were treated the next day with 1 μg/mL tunicamycin and 200 nM of a compound of Formula (I) for 7 hours. Luminescence was measured using One Glo (Promega) as specified by the manufacturer. Cells were maintained in DMEM with L-glutamine supplemented with 10% heat-inactivated FBS (Gibco) and Antibiotic-Antimycotic solution (Gibco).
Table 2 below summarizes the EC50 data obtained using the ATF4-Luc assay for exemplary compounds of the invention.

Structure (SMILES) | EC50 [µM]
O=C(COc1ccc(Cl)c(F)c1)NC12CC(NC(=O)C3CN(S(=O)(=O)CC(F)(F)F)c4cc(Cl)ccc4O3)(C1)C2 (stereo not shown) [Compound 183, 6-chloro-N-{3-[2-(4-chloro-3-fluorophenoxy)acetamido]bicyclo[1.1.1]pentan-1-yl}-4-(2,2,2-trifluoroethanesulfonyl)-3,4-dihydro-2H-1,4-benzoxazine-2-carboxamide] | 0.01 to 0.05
O=C(COc1ccc(Cl)c(F)c1)NC12CCC(NC(=O)[C@H]3CCc4cc(F)ccc4O3)(CC1)[C@@H](O)C2 [Compound 202, (2R)—N-{(2S)-4-[2-(4-chloro-3-fluorophenoxy)acetamido]-2-hydroxybicyclo[2.2.2]octan-1-yl}-6-fluoro-3,4-dihydro-2H-1-benzopyran-2-carboxamide] | < 0.01
O=C(NC12CC(NC(=O)C3COc4cc(Cl)c(Cl)cc4O3)(C1)C2)c1ccc(OC(F)(F)F)cn1 (stereo not shown) [Compound 132, N-{3-[(6,7-dichloro-2,3-dihydro-1,4-benzodioxine-2-carbonyl)amino]bicyclo[1.1.1]pentan-1-yl}-5-(trifluoromethoxy)pyridine-2-carboxamide] | 0.05 to 0.25
O=C(COc1ccc(Cl)c(F)c1)NC12CCC(NC(=O)[C@H]3CCc4cc(F)ccc4O3)(CC1)C[C@@H]2O [Compound 106, (2R)—N-{(3S)-4-[2-(4-chloro-3-fluorophenoxy)acetamido]-3-hydroxybicyclo[2.2.2]octan-1-yl}-6-fluoro-3,4-dihydro-2H-1-benzopyran-2-carboxamide] | < 0.01
Cn1cnc(S(=O)(=O)N2CC(C(=O)NC34CC(NC(=O)COc5ccc(Cl)c(F)c5)(C3)C4)Oc3ccc(Cl)cc32)c1 (stereo not shown) [Compound 165, 6-chloro-N-{3-[2-(4-chloro-3-fluorophenoxy)acetamido]bicyclo[1.1.1]pentan-1-yl}-4-(1-methyl-1H-imidazole-4-sulfonyl)-3,4-dihydro-2H-1,4-benzoxazine-2-carboxamide] | 0.01 to 0.05
O=C(COc1ccc(Cl)c(Cl)c1)NC12CCC(NC(=O)[C@H]3COc4cc(Cl)ccc4O3)(CC1)C[C@@H]2O [Compound 116, (2R)-6-chloro-N-{(3S)-4-[2-(3,4-dichlorophenoxy)acetamido]-3-hydroxybicyclo[2.2.2]octan-1-yl}-2,3-dihydro-1,4-benzodioxine-2-carboxamide] | < 0.01
O=C(COc1ccc(Cl)c(F)c1)NC12CCC(NC(=O)C3Cc4ccccc4O3)(CC1)C(O)C2 (stereo not shown) [Compound 129, N-{4-[2-(4-chloro-3-fluorophenoxy)acetamido]-2-hydroxybicyclo[2.2.2]octan-1-yl}-2,3-dihydro-1-benzofuran-2-carboxamide] | 0.25 to 0.5
O=C(COc1ccc(Cl)c(F)c1)NC12CCC(NC(=O)C3CCc4cc(Cl)ccc4O3)(CC1)[C@@H](O)C2 (stereo partly drawn) [Compound 203, 6-chloro-N-{(2S)-4-[2-(4-chloro-3-fluorophenoxy)acetamido]-2-hydroxybicyclo[2.2.2]octan-1-yl}-3,4-dihydro-2H-1-benzopyran-2-carboxamide] | < 0.01
O=C(COc1ccc(Cl)c(F)c1)NC12CC(NC(=O)[C@@H]3CN(C(=O)[C@H]4C[C@H]4F)c4cc(Cl)ccc4O3)(C1)C2 (single isomer, unassigned) [Compound 144] | 0.05 to 0.25
O=C(COc1ccc(Cl)c(F)c1)NC12CC(NC(=O)C3CN(C(=O)C(F)(F)C(F)(F)C(F)(F)F)c4cc(Cl)ccc4O3)(C1)C2 (stereo not shown) [Compound 159, 6-chloro-N-{3-[2-(4-chloro-3-fluorophenoxy)acetamido]bicyclo[1.1.1]pentan-1-yl}-4-(2,2,3,3,4,4,4-heptafluorobutanoyl)-3,4-dihydro-2H-1,4-benzoxazine-2-carboxamide] | < 0.01
O=C(COc1ccc(Cl)c(F)c1)NC12CCC(NC(=O)[C@@H]3COc4ccccc4O3)(CC1)[C@@H](O)C2 [Compound 127, (2S)—N-{(2S)-4-[2-(4-chloro-3-fluorophenoxy)acetamido]-2-hydroxybicyclo[2.2.2]octan-1-yl}-2,3-dihydro-1,4-benzodioxine-2-carboxamide] | 0.01 to 0.05
C[C@]1(C(=O)NC23CC(NC(=O)COc4ccc(Cl)c(F)c4)(C2)C3)COc2cc3c(cc21)OC(F)(F)O3 [Compound 131, (7R)—N-{3-[2-(4-chloro-3-fluorophenoxy)acetamido]bicyclo[1.1.1]pentan-1-yl}-2,2-difluoro-7-methyl-6,7-dihydro-2H-furo[2,3-f][1,3]benzodioxole-7-carboxamide] | 0.5 to 2
O=C(COc1ccc(Cl)c(F)c1)NC12CC(NC(=O)C3CN(C(=O)[C@@H]4C[C@@H]4F)c4cc(Cl)ccc4O3)(C1)C2 (stereo partly drawn) [Compound 175, 6-chloro-N-{3-[2-(4-chloro-3-fluorophenoxy)acetamido]bicyclo[1.1.1]pentan-1-yl}-4-[(1S,2S)-2-fluorocyclopropane-1-carbonyl]-3,4-dihydro-2H-1,4-benzoxazine-2-carboxamide] | 0.25 to 0.5
O=C(COc1ccc(Cl)c(F)c1)NC12CC(NC(=O)C3CN(C(=O)c4ccno4)c4cc(Cl)ccc4O3)(C1)C2 (stereo not shown) [Compound 154, 6-chloro-N-{3-[2-(4-chloro-3-fluorophenoxy)acetamido]bicyclo[1.1.1]pentan-1-yl}-4-(1,2-oxazole-5-carbonyl)-3,4-dihydro-2H-1,4-benzoxazine-2-carboxamide] | < 0.01
COCCOCC(=O)N1CC(C(=O)NC23CC(NC(=O)COc4ccc(Cl)c(F)c4)(C2)C3)Oc2ccc(Cl)cc21 (stereo not shown) [Compound 156, 6-chloro-N-{3-[2-(4-chloro-3-fluorophenoxy)acetamido]bicyclo[1.1.1]pentan-1-yl}-4-[(2-methoxyethoxy)acetyl]-3,4-dihydro-2H-1,4-benzoxazine-2-carboxamide] | 0.01 to 0.05
O=C(COc1ccc(Cl)c(F)c1)NC12CC(NC(=O)C3CN(C(=O)C4CC4)c4cc(Cl)ccc4O3)(C1)C2 (stereo not shown) [Compound 149, 6-chloro-N-{3-[2-(4-chloro-3-fluorophenoxy)acetamido]bicyclo[1.1.1]pentan-1-yl}-4-(cyclopropanecarbonyl)-3,4-dihydro-2H-1,4-benzoxazine-2-carboxamide] | 0.05 to 0.25
Cc1ncc(S(=O)(=O)N2CC(C(=O)NC34CC(NC(=O)COc5ccc(Cl)c(F)c5)(C3)C4)Oc3ccc(Cl)cc32)n1C (stereo not shown) [Compound 137, 6-chloro-N-{3-[2-(4-chloro-3-fluorophenoxy)acetamido]bicyclo[1.1.1]pentan-1-yl}-4-(1,2-dimethyl-1H-imidazole-5-sulfonyl)-3,4-dihydro-2H-1,4-benzoxazine-2-carboxamide] | > 2
COc1cccc(C(=O)N2CC(C(=O)NC34CC(NC(=O)COc5ccc(Cl)c(F)c5)(C3)C4)Oc3ccc(Cl)cc32)c1 (stereo not shown) [Compound 146, 6-chloro-N-{3-[2-(4-chloro-3-fluorophenoxy)acetamido]bicyclo[1.1.1]pentan-1-yl}-4-(3-methoxybenzoyl)-3,4-dihydro-2H-1,4-benzoxazine-2-carboxamide] | 0.5 to 2
O=C(COc1ccc(Cl)c(F)c1)NC12CC(NC(=O)C3CC(NCCO)c4cc(Cl)ccc4O3)(C1)C2 (stereo not shown) [Compound 188, 6-chloro-N-{3-[2-(4-chloro-3-fluorophenoxy)acetamido]bicyclo[1.1.1]pentan-1-yl}-4-[(2-hydroxyethyl)amino]-3,4-dihydro-2H-1-benzopyran-2-carboxamide] | 0.01 to 0.05
